Data as given in patent US9707233B2, “Heterocyclylamines as PI3K inhibitors” (Incyte Corporation, priority 2011, dated 2017).

Target: PI3Kδ (p110δ/p85α) (Homo sapiens (Human), UniProt O00329)
Experiment: PI3Kδ scintillation proximity assay (Example A3)
Assay type: biochemical
Conditions: 20 μM ATP, 20 μM PIP2, 4 nM PI3Kδ; read-out: PI3Kδ SPA IC50
Method in brief: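 Human PI3Kδ (p110δ/p85α, 4 nM) with 20 μM PIP2 and 20 μM ATP plus [γ-33P]ATP in 20 mM MOPS pH 6.7, 10 mM MgCl2, 5 mM DTT, 0.03% CHAPS, 0.5% DMSO, room temperature. Reaction stopped with EDTA/excess ATP; product captured on WGA SPA beads and counted. IC50 from percent control activity vs log inhibitor.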

Chain of PI3Kδ (p110δ/p85α) (O00329 whole entry): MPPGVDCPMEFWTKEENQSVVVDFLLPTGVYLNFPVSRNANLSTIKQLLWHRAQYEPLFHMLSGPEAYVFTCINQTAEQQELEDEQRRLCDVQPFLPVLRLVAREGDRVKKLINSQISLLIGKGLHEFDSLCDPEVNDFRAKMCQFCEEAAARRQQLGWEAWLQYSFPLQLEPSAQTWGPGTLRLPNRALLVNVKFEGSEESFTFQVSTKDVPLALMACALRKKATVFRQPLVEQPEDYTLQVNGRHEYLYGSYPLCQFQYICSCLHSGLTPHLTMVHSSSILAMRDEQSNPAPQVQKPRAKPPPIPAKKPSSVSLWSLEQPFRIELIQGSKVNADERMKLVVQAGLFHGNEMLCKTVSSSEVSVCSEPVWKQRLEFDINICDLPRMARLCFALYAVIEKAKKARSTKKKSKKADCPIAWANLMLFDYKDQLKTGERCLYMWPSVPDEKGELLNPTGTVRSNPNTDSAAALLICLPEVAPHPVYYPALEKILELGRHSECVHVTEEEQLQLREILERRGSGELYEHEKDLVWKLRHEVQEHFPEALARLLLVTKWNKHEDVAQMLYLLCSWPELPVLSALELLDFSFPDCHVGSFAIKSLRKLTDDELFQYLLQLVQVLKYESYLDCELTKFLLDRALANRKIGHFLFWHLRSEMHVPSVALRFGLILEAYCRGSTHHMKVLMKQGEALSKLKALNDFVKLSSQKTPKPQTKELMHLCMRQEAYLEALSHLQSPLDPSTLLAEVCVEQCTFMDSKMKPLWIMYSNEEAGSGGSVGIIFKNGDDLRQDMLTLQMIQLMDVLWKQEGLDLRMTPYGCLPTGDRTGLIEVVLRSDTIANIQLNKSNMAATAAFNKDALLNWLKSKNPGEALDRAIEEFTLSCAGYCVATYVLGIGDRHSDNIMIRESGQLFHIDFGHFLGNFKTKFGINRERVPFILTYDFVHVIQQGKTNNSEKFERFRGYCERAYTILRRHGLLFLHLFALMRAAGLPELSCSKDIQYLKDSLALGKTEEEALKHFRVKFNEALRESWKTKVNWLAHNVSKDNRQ
Chain of PI3Kδ (p110δ/p85α) (P27986 whole entry partner): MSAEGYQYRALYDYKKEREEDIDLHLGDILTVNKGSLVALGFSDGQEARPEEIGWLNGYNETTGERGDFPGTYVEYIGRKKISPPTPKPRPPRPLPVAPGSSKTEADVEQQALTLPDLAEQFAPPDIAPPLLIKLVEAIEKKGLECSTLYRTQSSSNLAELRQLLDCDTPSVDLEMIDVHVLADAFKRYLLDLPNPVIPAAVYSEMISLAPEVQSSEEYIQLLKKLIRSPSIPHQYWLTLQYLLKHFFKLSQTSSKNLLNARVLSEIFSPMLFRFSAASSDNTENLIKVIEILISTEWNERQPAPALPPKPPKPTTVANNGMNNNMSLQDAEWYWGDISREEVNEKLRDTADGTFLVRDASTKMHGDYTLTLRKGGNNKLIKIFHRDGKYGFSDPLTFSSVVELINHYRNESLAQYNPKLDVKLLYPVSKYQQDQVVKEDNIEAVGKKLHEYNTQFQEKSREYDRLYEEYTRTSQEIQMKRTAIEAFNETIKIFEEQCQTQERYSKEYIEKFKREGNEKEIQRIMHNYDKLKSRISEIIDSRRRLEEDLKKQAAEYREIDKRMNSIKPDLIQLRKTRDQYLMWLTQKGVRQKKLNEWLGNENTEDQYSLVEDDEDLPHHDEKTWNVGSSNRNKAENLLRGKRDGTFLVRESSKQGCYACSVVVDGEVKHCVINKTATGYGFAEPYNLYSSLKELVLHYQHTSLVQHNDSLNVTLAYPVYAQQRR

SMILES: CCOc1c(C(C)n2nc(C)c3c(N)ncnc32)cc(Cl)c(C#N)c1C1CN(C(C)C)C1 (centres unmarked) [Example 215, 4-[1-(4-Amino-3-methyl-1H-pyrazolo[3,4-d]pyrimidin-1-yl)ethyl]-6-chloro-3-ethoxy-2-(1-isopropylazetidin-3-yl)benzonitrile]
- IC50: ≤ 10 nM

SMILES: COc1c(C(C)n2nc(C)c3c(N)ncnc32)cc(Cl)c(C#N)c1C1CN(C(=O)C2CC2)C1 (single isomer, unassigned) [Example 284, 4-[1-(4-Amino-3-methyl-1H-pyrazolo[3,4-d]pyrimidin-1-yl)ethyl]-6-chloro-2-[1-(cyclopropylcarbonyl)azetidin-3-yl]-3-methoxybenzonitrile]
- IC50: ≤ 10 nM

SMILES: CCOc1c(C(C)n2nc(C)c3c(N)ncnc32)cc(Cl)c(C)c1-c1cnn(CC(=O)N(C)C)c1 (single isomer, unassigned) [Example 205, 2-(4-(3-(1-(4-amino-3-methyl-1H-pyrazolo[3,4-d]pyrimidin-1-yl)ethyl)-5-chloro-2-ethoxy-6-methylphenyl)-1H-pyrazol-1-yl)-N,N-dimethylacetamide]
- IC50: ≤ 10 nM

SMILES: COc1c(C(C)n2nc(C)c3c(N)ncnc32)cc(Cl)c(C)c1-c1cncc(C(=O)N2CC(C#N)C2)c1 (centres unmarked) [Example 177, 1-[(5-{3-[1-(4-amino-3-methyl-1H-pyrazolo[3,4-d]pyrimidin-1-yl)ethyl]-5-chloro-2-methoxy-6-methylphenyl}pyridin-3-yl)carbonyl]azetidine-3-carbonitrile]
- IC50: ≤ 10 nM

SMILES: COc1c(C(C)n2nc(C)c3c(N)ncnc32)cc(Cl)c(C#N)c1C1CN(C(C)C)C1 (centres unmarked) [Example 264, 4-[1-(4-Amino-3-methyl-1H-pyrazolo[3,4-d]pyrimidin-1-yl)ethyl]-6-chloro-2-(1-isopropylazetidin-3-yl)-3-methoxybenzonitrile]
- IC50: ≤ 10 nM

SMILES: CCOc1c(C(C)n2nc(C)c3c(N)ncnc32)cc(Cl)c(C)c1-c1cncc(S(C)(=O)=O)c1 (centres unmarked) [Example 198, 1-(1-(5-chloro-2-ethoxy-4-methyl-3-(5-(methylsulfonyl)pyridin-3-yl)phenyl)ethyl)-3-methyl-1H-pyrazolo[3,4-d]pyrimidin-4-amine]
- IC50: ≤ 10 nM

SMILES: COc1c(C(C)n2nc(C)c3c(N)ncnc32)cc(Cl)c(C)c1-c1ccc(N(C)C)nc1 (single isomer, unassigned) [Example 185, 1-(1-(5-chloro-3-(6-(dimethylamino)pyridin-3-yl)-2-methoxy-4-methylphenyl)ethyl)-3-methyl-1H-pyrazolo[3,4-d]pyrimidin-4-amine]
- IC50: ≤ 10 nM

SMILES: CCOc1c(C(C)n2nc(C)c3c(N)ncnc32)cc(Cl)c(C#N)c1C1CN(C(=O)C2CC2)C1 (single isomer, unassigned) [Example 246, 4-[1-(4-Amino-3-methyl-1H-pyrazolo[3,4-d]pyrimidin-1-yl)ethyl]-6-chloro-2-[1-(cyclopropylcarbonyl)azetidin-3-yl]-3-ethoxybenzonitrile]
- IC50: ≤ 10 nM

SMILES: CCOc1c(C(C)n2nc(C)c3c(N)ncnc32)cc(C)c(C#N)c1-c1ccnc(C(=O)N(C)C)c1 (single isomer, unassigned) [Example 340, 4-{3-[1-(4-amino-3-methyl-1H-pyrazolo[3,4-d]pyrimidin-1-yl)ethyl]-6-cyano-2-ethoxy-5-methylphenyl}-N,N-dimethylpyridine-2-carboxamide]
- IC50: ≤ 10 nM

SMILES: COc1c(C(C)n2nc(C)c3c(N)ncnc32)cc(Cl)c(C)c1-c1ccnc(N(C)C)c1 (single isomer, unassigned) [Example 186, 1-(1-(5-chloro-3-(2-(dimethylamino)pyridin-4-yl)-2-methoxy-4-methylphenyl)ethyl)-3-methyl-1H-pyrazolo[3,4-d]pyrimidin-4-amine]
- IC50: ≤ 10 nM

SMILES: CCOc1c(C(C)n2nc(C)c3c(N)ncnc32)cc(Cl)c(C)c1C1CNC(=O)C1 (single isomer, unassigned) [Example 311, 4-{3-[1-(4-amino-3-methyl-1H-pyrazolo[3,4-d]pyrimidin-1-yl)ethyl]-5-chloro-2-ethoxy-6-methylphenyl}pyrrolidin-2-one]
- IC50: ≤ 10 nM

SMILES: COc1c(C(C)n2nc(C)c3c(N)nccc32)cc(Cl)c(C)c1-c1ccc(C(=O)N(C)C)nc1 (racemic) [Example 41, 5-{3-[1-(4-Amino-3-methyl-1H-pyrazolo[4,3-c]pyridin-1-yl)ethyl]-5-chloro-2-methoxy-6-methylphenyl}-N,N-dimethylpyridine-2-carboxamide bis(trifluoroacetate)]
- IC50: 50 to 200 nM

SMILES: CCOc1c(C(C)n2nc(C)c3c(N)ncnc32)cc(Cl)c(C)c1-c1ccc(C(=O)NC)nc1 (single isomer, unassigned) [Example 199, 5-(3-(1-(4-amino-3-methyl-1H-pyrazolo[3,4-d]pyrimidin-1-yl)ethyl)-5-chloro-2-ethoxy-6-methylphenyl)-N-methylpicolinamide]
- IC50: ≤ 10 nM

SMILES: COc1c(C(C)n2nc(C)c3c(N)ncnc32)cc(Cl)c(C#N)c1C1CN(C(=O)C(C)C)C1 (single isomer, unassigned) [Example 283, 4-[1-(4-Amino-3-methyl-1H-pyrazolo[3,4-d]pyrimidin-1-yl)ethyl]-6-chloro-2-(1-isobutyrylazetidin-3-yl)-3-methoxybenzonitrile]
- IC50: ≤ 10 nM

SMILES: CCNC(=O)N1CC(c2c(C#N)c(Cl)cc(C(C)n3nc(C)c4c(N)ncnc43)c2OC)C1 (single isomer, unassigned) [Example 295, 3-{3-[1-(4-Amino-3-methyl-1H-pyrazolo[3,4-d]pyrimidin-1-yl)ethyl]-5-chloro-6-cyano-2-methoxyphenyl}-N-ethylazetidine-1-carboxamide]
- IC50: ≤ 10 nM

SMILES: CCOc1c(C(C)n2nc(C)c3c(N)ncnc32)cc(Cl)c(C#N)c1C1CN(C(C)(C)C(=O)NC)C1 (single isomer, unassigned) [Example 240, 2-(3-{3-[1-(4-Amino-3-methyl-1H-pyrazolo[3,4-d]pyrimidin-1-yl)ethyl]-5-chloro-6-cyano-2-ethoxyphenyl}azetidin-1-yl)-N,2-dimethylpropanamide]
- IC50: ≤ 10 nM

SMILES: CCOc1c(C(C)n2nc(C)c3c(N)ncnc32)cc(Cl)c(F)c1C1CN(CC(N)=O)C1 (centres unmarked) [Example 148, 2-(3-{3-[1-(4-Amino-3-methyl-1H-pyrazolo[3,4-d]pyrimidin-1-yl)ethyl]-5-chloro-2-ethoxy-6-fluorophenyl}azetidin-1-yl)acetamide]
- IC50: ≤ 10 nM

SMILES: CCOc1c(C(C)n2nc(C)c3c(N)ncnc32)cc(Cl)c(C#N)c1C1CN(C(=O)C(C)C)C1 (single isomer, unassigned) [Example 244, 4-[1-(4-Amino-3-methyl-1H-pyrazolo[3,4-d]pyrimidin-1-yl)ethyl]-6-chloro-3-ethoxy-2-(1-isobutyrylazetidin-3-yl)benzonitrile]
- IC50: ≤ 10 nM

SMILES: CCOc1c(C(C)n2nc(C)c3c(N)ncnc32)cc(Cl)c(C#N)c1C1CN(S(C)(=O)=O)C1 (centres unmarked) [Example 248, 4-[1-(4-Amino-3-methyl-1H-pyrazolo[3,4-d]pyrimidin-1-yl)ethyl]-6-chloro-3-ethoxy-2-[1-(methylsulfonyl)azetidin-3-yl]benzonitrile]
- IC50: ≤ 10 nM

SMILES: CCOc1c(C(C)n2nc(C)c3c(N)ncnc32)cc(Cl)c(C)c1-c1ccnc(C(=O)N(C)CCO)c1 (single isomer, unassigned) [Example 202, 4-(3-(1-(4-amino-3-methyl-1H-pyrazolo[3,4-d]pyrimidin-1-yl)ethyl)-5-chloro-2-ethoxy-6-methylphenyl)-N-(2-hydroxyethyl)-N-methylpicolinamide]
- IC50: ≤ 10 nM

SMILES: CCOc1c(C(C)n2nc(-c3cc[nH]n3)c3c(N)ncnc32)cc(Cl)c(C)c1-c1ccc(C(=O)N(C)C)nc1 (racemic) [Example 51, 5-(3-{1-[4-amino-3-(1H-pyrazol-3-yl)-1H-pyrazolo[3,4-d]pyrimidin-1-yl]ethyl}-5-chloro-2-ethoxy-6-methylphenyl)-N,N-dimethylpyridine-2-carboxamide bis(trifluoroacetate)]
- IC50: ≤ 10 nM

SMILES: CCOC(=O)N1CC(c2c(C#N)c(Cl)cc(C(C)n3nc(C)c4c(N)ncnc43)c2OCC)C1 (single isomer, unassigned) [Example 253, Ethyl 3-{3-[1-(4-amino-3-methyl-1H-pyrazolo[3,4-d]pyrimidin-1-yl)ethyl]-5-chloro-6-cyano-2-ethoxyphenyl}azetidine-1-carboxylate]
- IC50: ≤ 10 nM

SMILES: COc1c(C(C)n2nc(C)c3c(N)ncnc32)cc(Cl)c(C)c1C1CC1 (single isomer, unassigned) [Example 192, 1-[1-(5-Chloro-3-cyclopropyl-2-methoxy-4-methylphenyl)ethyl]-3-methyl-1H-pyrazolo[3,4-d]pyrimidin-4-amine]
- IC50: 10 to 50 nM

SMILES: COc1c(C(C)n2nc(C)c3c(N)ncnc32)cc(Cl)c(C)c1C1CN(C(=O)C2CC2)C1 (single isomer, unassigned) [Example 119, 1-(1-{5-Chloro-3-[1-(cyclopropylcarbonyl)azetidin-3-yl]-2-methoxy-4-methylphenyl}ethyl)-3-methyl-1H-pyrazolo[3,4-d]pyrimidin-4-amine]
- IC50: ≤ 10 nM

SMILES: CCOc1c(C(C)n2nc(C)c3c(N)ncnc32)cc(Cl)c(C#N)c1C1CN(C(COC)COC)C1 (single isomer, unassigned) [Example 226, 4-[1-(4-Amino-3-methyl-1H-pyrazolo[3,4-d]pyrimidin-1-yl)ethyl]-6-chloro-3-ethoxy-2-{1-[2-methoxy-1-(methoxymethyl)ethyl]azetidin-3-yl}benzonitrile]
- IC50: ≤ 10 nM

SMILES: CCOc1c(C(C)n2nc(C#N)c3c(N)ncnc32)cc(Cl)c(C)c1-c1ccc(C(=O)N(C)C)nc1 (racemic) [Example 54, 5-{3-[1-(4-amino-3-cyano-1H-pyrazolo[3,4-d]pyrimidin-1-yl)ethyl]-5-chloro-2-ethoxy-6-methylphenyl}-N,N-dimethylpyridine-2-carboxamide]
- IC50: 10 to 50 nM
